Reference: US7276533B2, “Compositions useful for the treatment of pathologies responding to the activation of PPAR-gamma receptor” (Sigma-Tau Industrie Farmaceutiche Riunite S.p.A., priority 2001, dated 2007)

Columns and labels:
PPARγ receptor = target: T1, PPARγ receptor (Homo sapiens, UniProt P37231); experiment: Activation of PPARγ: cellular transfection with PPAR-γ plasmid and TK-PPAR-Reluc luciferase reporter vector; details: NIH-3T3 murine fibroblasts, 24 hour-treatment, spirolaxine 40 nM, FIG. 1
T1 sequence (P37231 1-505): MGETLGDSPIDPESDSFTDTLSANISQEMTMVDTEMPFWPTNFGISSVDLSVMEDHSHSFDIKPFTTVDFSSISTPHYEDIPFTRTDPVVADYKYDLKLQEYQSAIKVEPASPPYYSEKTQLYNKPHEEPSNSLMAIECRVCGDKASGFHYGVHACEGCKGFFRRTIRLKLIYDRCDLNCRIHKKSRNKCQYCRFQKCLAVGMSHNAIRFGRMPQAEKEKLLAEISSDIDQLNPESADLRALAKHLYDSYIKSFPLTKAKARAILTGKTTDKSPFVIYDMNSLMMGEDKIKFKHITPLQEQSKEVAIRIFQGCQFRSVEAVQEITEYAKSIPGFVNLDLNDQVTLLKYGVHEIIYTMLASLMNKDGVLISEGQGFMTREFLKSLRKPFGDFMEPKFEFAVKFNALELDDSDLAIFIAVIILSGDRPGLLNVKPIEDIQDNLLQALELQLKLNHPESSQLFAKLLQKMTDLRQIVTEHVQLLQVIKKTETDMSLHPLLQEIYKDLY
Procedure: The activation of the expression of the luciferase was put into evidence by transfecting the NIH-3T3 murine fibroblasts with the PPAR-γ plasmid and the TK-PPAR-Reluc reporter vector; the luciferase activity was measured after 24 hour-treatment with the spirolaxine at a concentration of 40 nM.

[1] = tested on: NB4 cells (human promyelocitic leukemia); experiment: Differentiation of NB4 cells into granulocytes, NBT dye reduction, spectrophotometric assay at 540 nm; assay type: cell-based; details: 2-3 days, FIG. 2
Procedure: The pro-differentiative activity of the spirolaxine (ST 1397) and the ATRA, both alone and in association, was assessed in this experimental model.
NB4 cells were grown in 25 cm^2 flasks at a density of approx 100.000 cells/ml in 5 ml of RPMI 1640 culture with 10% fetal calf serum (FCS). After one day, the cells were treated with ATRA at a concentration of 10^−7 M, or with ST 1397 at doses of 0,1, 0,5 and 1 μM, or with equivalent volumes of the two compounds in association. Then, the cells were put into the incubator for 2-3 days, without replacing the culture medium.
At the end of the second or third day of treatment, the differentiation of the cells into granulocytes was measured by the NBT dye reduction and the spectrophotomectric assay of the samples.
The retinoic acid was dissolved in the culture medium with a solution of DMSO 1 mM. Control cultures were treated with equivalent volumes of DMSO, since this compound (DMSO) can be differentiating in certain experimental conditions.
To measure the differentiative effect, 500.000 cells have been gathered from each sample, centrifuged and re-suspended in 1 ml of RPMI 1640 culture with 10% serum, 1 mg/ml of nitroblue tetrazolium (NBT) and 100 ng of PMA. The re-suspended cells were incubated at 37° C. for 20-60 min. […]
The samples were sonicated to complete lysis and then read with a spectrophotometer at a wave length of 540 nm.

| luciferase activity mediated by the TK-PPAR-Reluc reporter vector (index of activation of the receptor) versus control (PPARγ receptor) | Structure (SMILES) | differentiation in NB4 cells (NBT reduction) ([1]; ST 1397 alone at 0,1, 0,5 and 1 μM) | differentiation in NB4 cells (NBT reduction) ([1]; ATRA alone at 10^−7 M) |
| --- | --- | --- | --- |
| seven times higher than the control | COc1cc(O)cc2c1C(=O)OC2CCCCCC1CCCC2(CCC(C)O2)O1 (stereo not drawn) [spirolaxine] | does not induce differentiation | – |
| – | CC1=C(/C=C/C(C)=C/C=C/C(C)=C/C(=O)O)C(C)(C)CCC1 [ATRA, all-trans retinoic acid, reference compound] | – | differentiative effect was already well known |
